Results taken from ChEMBL document CHEMBL1151427, “Intrinsic novobiocin resistance in Staphylococcus saprophyticus” (2007).
In brackets after ≈: the same amount, converted by molar mass.

What was measured:
Type in all cases: functional
[1] = Ratio of MIC for Staphylococcus aureus RN4220 harboring tetracycline-regulable expression vector pAJ96 expressing Staphylococcus saprophyticus GyrB gene to MIC for Staphylococcus aureus SH1000
Staphylococcus aureus [2] = test: Antimicrobial activity against Staphylococcus aureus RN4220 harboring tetracycline-regulable expression vector pAJ96 after 24 hrs by agar dilution method; conditions: RN4220, 24 h
Staphylococcus aureus [3] = test: Antimicrobial activity against Staphylococcus aureus RN4220 after 24 hrs by agar dilution method; conditions: RN4220, 24 h
Staphylococcus aureus [4] = test: Antimicrobial activity against Staphylococcus aureus RN4220 harboring tetracycline-regulable expression vector pAJ96 expressing Staphylococcus aureus GyrB gene after 24 hrs by agar dilution method; conditions: RN4220, 24 h
Staphylococcus aureus [5] = test: Antimicrobial activity against Staphylococcus aureus RN4220 harboring tetracycline-regulable expression vector pAJ96 expressing Staphylococcus saprophyticus GyrB G85D mutant gene after 24 hrs by agar dilution method; conditions: RN4220, 24 h
[6] = Ratio of MIC for Staphylococcus aureus RN4220 harboring tetracycline-regulable expression vector pAJ96 expressing Staphylococcus saprophyticus GyrB gene to MIC for Staphylococcus aureus RN4220
Staphylococcus aureus [7] = test: Antimicrobial activity against Staphylococcus aureus RN4220 harboring tetracycline-regulable expression vector pAJ96 expressing Staphylococcus saprophyticus GyrB G85D, K140R mutant gene after 24 hrs by agar dilution method; conditions: RN4220, 24 h
Staphylococcus aureus [8] = test: Antimicrobial activity against Staphylococcus aureus RN4220 harboring tetracycline-regulable expression vector pAJ96 expressing Staphylococcus saprophyticus GyrB K140R mutant gene after 24 hrs by agar dilution method; conditions: RN4220, 24 h
Staphylococcus aureus [9] = test: Antimicrobial activity against Staphylococcus aureus RN4220 harboring tetracycline-regulable expression vector pAJ96 expressing Staphylococcus saprophyticus GyrB gene after 24 hrs by agar dilution method; conditions: RN4220, 24 h
[10] = tested on: Staphylococcus saprophyticus; test: Antimicrobial activity against Staphylococcus saprophyticus ATCC 15305 after 24 hrs by agar dilution method; conditions: ATCC 15305, 24 h
Staphylococcus aureus [11] = test: Antimicrobial activity against Staphylococcus aureus SH1000 after 24 hrs by agar dilution method; conditions: SH1000, 24 h

Structure (SMILES): CO[C@@H]1[C@@H](OC(N)=O)[C@@H](O)[C@H](Oc2ccc3c(O)c(NC(=O)c4ccc(O)c(CC=C(C)C)c4)c(=O)oc3c2C)OC1(C)C [NOVOBIOCIN]
- Ratio [1]: 64
- MIC (Staphylococcus aureus [2]): 0.125 µg/mL (≈ 0.204 µM)
- MIC (Staphylococcus aureus [3]): 0.125 µg/mL (≈ 0.204 µM)
- MIC (Staphylococcus aureus [4]): 0.125 µg/mL (≈ 0.204 µM)
- MIC (Staphylococcus aureus [5]): 1 µg/mL (≈ 1.63 µM)
- Ratio [6]: 64
- MIC (Staphylococcus aureus [7]): 0.125 µg/mL (≈ 0.204 µM)
- MIC (Staphylococcus aureus [8]): 2 µg/mL (≈ 3.26 µM)
- MIC (Staphylococcus aureus [9]): 8 µg/mL (≈ 13.1 µM)
- MIC [10]: 16 µg/mL (≈ 26.1 µM)
- MIC (Staphylococcus aureus [11]): 0.125 µg/mL (≈ 0.204 µM)
